Source: patent US20170173069A1, “METHODS OF NUCLEOTIDE AND GENE DELIVERY USING MEMBRANE TRANSPORT MECHANISMS” (The Charlotte Mecklenburg Hospital Authority d/b/a …, priority 2015, published 2017)

System: dystrophin exon 23
Test: Dystrophin expression (immunostaining of muscle sections) in mdx dystrophic mice after antisense oligonucleotide PMOE23
Type: in vivo, mouse
Procedure: The mdx dystrophic mouse contains a nonsense point mutation in the dystrophin exon 23. PMOE23 (5′[…]-3′) (SEQ ID NO:1) oligo binds to the exon-intron boundary of the dystrophin exon 23, resulting in the skip of the exon 23 and restoration of the reading frame and the expression of the dystrophin protein. The mdx mice are treated with antisense oligonuleotide PMOE23 (5′[…]-3′) (SEQ ID NO:1) via intravenous injection and the muscles are examined 2 weeks later. Saline treated, mouse was treated with saline without PMO as control. PMO only, mouse was treated with single dose 1 mg PMO only. PMO+Repa, mouse was treated with single dose 1 mg PMO and Repaglinide. 100 microgram Repaglinide was gavaged before the injection of PMO. Quad, quadriceps. Blue are DAPI stained nuclei; red staining representing membrane localized dystrophin expression.
A comparison of levels of dystrophin expression after treatment with morpholino antisense oligonucleotide PMOE23 and Eicosapentaenoic acid (EPA)-linked PMOE23 in 4-6 weeks old mdx dystrophic mice. […] PMOE23 (5′[…]-3′) (SEQ ID NO:1) oligo binds to the exon-intron boundary of the dystrophin exon 23, resulting in the skip of the exon 23 and restoration of the reading frame and the expression of the dystrophin protein. […] 6 μm sections were cut from freshly frozen muscles and stained with rabbit anti-dystrophin antibody P7 and detected with goat-anti-rabbit Ig-Alexa 594. […] Images were taken by Olympus BX52 fluorescence microscope.
A comparison of levels of dystrophin expression after treatment with morpholino antisense oligonucleotide PMOE23 and PMOE23 in combination with the use of insulin in 4-6 weeks old mdx dystrophic mice. […] PMOE23 (5′[…]-3′) (SEQ ID NO:1) oligo binds to the exon-intron boundary of the dystrophin exon 23, resulting in the skip of the exon 23 and restoration of the reading frame and the expression of the dystrophin protein. […] 6 μm sections were cut from freshly frozen muscles and stained with rabbit anti-dystrophin antibody P7 and detected with goat-anti-rabbit Ig-Alexa 594. […] Images were taken by Olympus BX52 fluorescence microscope.

Substance: PMO only: morpholino antisense oligonucleotide PMOE23, 5′GGCCAAACCTCGGCTTACCTGAAAT-3′ (SEQ ID NO:1), skips dystrophin exon 23 (all phosphorodiamidate morpholino (PMO))
- number of dystrophin positive fibers / membrane localized dystrophin expression in muscle (Example 1, FIG. 1: mdx mice, single dose 1 mg PMO intravenous, 100 microgram Repaglinide gavaged before PMO, muscles examined 2 weeks later): only a few muscle fibers expressing weak dystrophin
- number of dystrophin positive fibers / membrane localized dystrophin expression in muscle (Example 2, FIG. 2: 4-6 weeks old mdx mice, single intravenous dose 1 mg PMOE23 or 0.7 mg EPA-linked PMOE23, muscles examined 2 weeks later, antibody P7): only a few muscle fibers expressing weak dystrophin
- number of dystrophin positive fibers / membrane localized dystrophin expression in muscle (Example 3, FIG. 3: 4-6 weeks old mdx mice, single intravenous dose 1 mg PMOE23, 0.5 unit Insulin subcutaneously immediately after PMO, muscles examined 2 weeks later, antibody P7): only a few muscle fibers expressing weak dystrophin
